Reference: paper PMC9601613, “Development of a Fluorescence Polarization Assay for Multi-Determination of 10 Aminoglycosides in Pork Muscle Sample Based on Ribosomal Protein S12 and Studying Its Recognition Mechanism” (Foods, 2022)
pIC50, pKd: −log10 of the molar value.

Columns and labels:
[1] = target: T1, RpsL12 (ribosomal protein S12) (Lysinibacillus sphaericus, UniProt B1HMZ3); test: fluorescence polarization competition with tracer STR-FITC; type: binding
T1 construct: gene rpsL; isolated ribosomal protein without rRNA; 426 bp gene in pET32a(+), purified from soluble fraction of E. coli BL21
T1 sequence (B1HMZ3 1-139): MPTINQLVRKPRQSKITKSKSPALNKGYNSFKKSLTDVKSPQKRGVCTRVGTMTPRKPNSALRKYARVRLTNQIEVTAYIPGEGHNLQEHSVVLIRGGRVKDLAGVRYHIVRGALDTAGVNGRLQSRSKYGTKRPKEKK
From the text: fluorescence polarization competition with tracer STR-FITC on RpsL12 (ribosomal protein S12)

[2] = target: T1, RpsL12 (ribosomal protein S12); test: biochemical; design: surface plasmon resonance, binding kinetics and equilibrium dissociation constant of aminoglycosides to RpsL12; conditions: for kon: read-out: Ka; for koff: read-out: Kd
Protocol: The affinities of the RpsL12 for the 10 AGs were determined by using the surface plasmon resonance technique (SPR), and the assay procedures were performed according to our recent report (see Supplementary Materials). During the SPR test, the association constant (Ka), dissociation constant (Kd), and equilibrium dissociation constant (KD = Kd/Ka) for the 10 AGs were determined. Furthermore, the absolute affinity constants (KA=Log2(KD)) for the 10 AGs were also calculated, which were used to conveniently compare their affinities. For confirmation of the molecular docking results, the receptor affinities for the 10 drugs were also determined by SPR. […] The recognition mechanisms of RpsL12 protein for AGs reported in the present study were more comprehensive than the previous report. The recombinant plasmids were synthesized at Sangon Biotech Co., Ltd. (Shanghai, China) by inserting the RpsL12 gene of Lysinibacillus sphaericus (GenBank ID: AHC30887.1) into the express vector pET32a(+). The plasmids containing the express vector pET32a-RpsL12 were transformed into BL21 (D3) for acculturation, and the gene products in the positive colonies were characterized by a polymerase chain reaction and DNA sequencing. Then the RpsL12 was expressed with the same procedures as those described in our recent report (see Supplementary Materials), and the obtained product was analyzed with SDS-PAGE electrophoresis and Western blotting.

[3] = target: T1, RpsL12 (ribosomal protein S12); test: surface plasmon resonance; type: binding; conditions: log2-transformed affinity, not an association constant in 1/M; sign as printed; KD itself only in supplement
From the text: surface plasmon resonance on RpsL12 (ribosomal protein S12)

Compound	pIC50 [1]	pKd [2]	kon [2]	koff [2]	KA [3]
NCC[C@H](O)C(=O)N[C@@H]1C[C@H](N)[C@@H](O[C@H]2O[C@H](CN)[C@@H](O)[C@H](O)[C@H]2O)[C@H](O)[C@H]1O[C@H]1O[C@H](CO)[C@@H](O)[C@H](N)[C@H]1O [amikacin]	6.93	7.37	1690 M⁻¹ s⁻¹	7.2e-05 s⁻¹	24.487
CN[C@@H]1[C@@H](O[C@H]2O[C@H](CO)[C@@H](N)[C@H](O)[C@H]2O)O[C@H]2C[C@@H](N)[C@@H](O[C@H]3[C@H](O)[C@@H](O)[C@H](N)C[C@@H]3N)O[C@@H]2[C@@H]1O [apramycin]	–	–	20200 M⁻¹ s⁻¹	0.000281 s⁻¹	–
CCN[C@@H]1C[C@H](N)[C@@H](O[C@H]2O[C@H](CN)CC[C@H]2N)[C@H](O)[C@H]1O[C@H]1OC[C@](C)(O)[C@H](NC)[C@H]1O [etimicin]	6.89	3.42	51.2 M⁻¹ s⁻¹	0.0195 s⁻¹	11.358
CNC(C)[C@@H]1CC[C@@H](N)[C@@H](O[C@H]2[C@H](O)[C@@H](O[C@H]3OC[C@](C)(O)[C@H](NC)[C@H]3O)[C@H](N)C[C@@H]2N)O1 (stereo partly drawn) [gentamicin]	–	5.33	2180 M⁻¹ s⁻¹	0.0103 s⁻¹	–
CNC[C@@H]1CC[C@@H](N)[C@@H](O[C@H]2[C@H](O)[C@@H](O[C@H]3OC[C@](C)(O)[C@H](NC)[C@H]3O)[C@H](N)C[C@@H]2N)O1 [micronomicin]	6.86	4.41	141 M⁻¹ s⁻¹	0.00543 s⁻¹	14.666
NC[C@@H]1O[C@H](O[C@H]2[C@@H](O)[C@H](O[C@@H]3[C@@H](O)[C@H](N)C[C@H](N)[C@H]3O[C@H]3O[C@H](CN)[C@@H](O)[C@H](O)[C@H]3N)O[C@@H]2CO)[C@H](N)[C@@H](O)[C@@H]1O [neomycin]	7.10	7.83	3150 M⁻¹ s⁻¹	4.7e-05 s⁻¹	25.997
CCNC1CC(N)C(OC2OC(CN)=CCC2N)C(O)C1OC1OCC(C)(O)C(NC)C1O (stereo not drawn) [netimicin]	–	–	37.1 M⁻¹ s⁻¹	0.00141 s⁻¹	–
NC[C@@H]1O[C@H](O[C@H]2[C@@H](O)[C@H](O[C@@H]3[C@@H](O)[C@H](N)C[C@H](N)[C@H]3O[C@H]3O[C@H](CO)[C@@H](O)[C@H](O)[C@H]3N)O[C@@H]2CO)[C@H](N)[C@@H](O)[C@@H]1O [paromomycin]	6.93	7.18	263000 M⁻¹ s⁻¹	0.0174 s⁻¹	23.851
CN[C@@H]1[C@H](O)[C@H](NC)[C@H]2O[C@@]3(O)C(=O)C[C@@H](C)O[C@H]3O[C@@H]2[C@H]1O [spectinomycin]	6.73	7.19	211000 M⁻¹ s⁻¹	0.0135 s⁻¹	23.900
CN[C@@H]1[C@H](O[C@H]2[C@H](O[C@H]3[C@H](O)[C@@H](O)[C@H](N=C(N)N)[C@@H](O)[C@@H]3N=C(N)N)O[C@@H](C)[C@]2(O)C=O)O[C@@H](CO)[C@H](O)[C@H]1O [streptomycin]	6.99	7.43	8200 M⁻¹ s⁻¹	0.000307 s⁻¹	24.670
